In ChEMBL document CHEMBL1201862, “PubChem BioAssay data set” (2004):
Calls of active or inactive are those of the source.

What was measured:
[1] = molecular target: Potassium voltage-gated channel subfamily KQT member 2 (Rattus norvegicus, UniProt O88943); test: blockers of KCNQ2 channel current – cell-based, automated electrophysiology, set II, rat KCNQ2, dose response (AID 588637); type: functional
[2] = Luminescence Cell-Based Dose Retest to Confirm Inhibitors of Cancer Stem Cells. [Related pubchem assays (depositor defined):AID2717, AID2721]; type: functional; settings: Homo sapiens
[3] = viability loss of HMLE_sh_eGFP cells – cell-based, luminescence, counter-screen for HMLE_sh_ECad selective toxicity project, dose response (AID 463074); type: functional, Homo sapiens;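 note: HMLE human mammary epithelial cells expressing control shRNA against eGFP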
[4] = molecular target: T1, Kappa-type opioid receptor (Homo sapiens, UniProt P41145); type: functional
T1 sequence (P41145 whole entry): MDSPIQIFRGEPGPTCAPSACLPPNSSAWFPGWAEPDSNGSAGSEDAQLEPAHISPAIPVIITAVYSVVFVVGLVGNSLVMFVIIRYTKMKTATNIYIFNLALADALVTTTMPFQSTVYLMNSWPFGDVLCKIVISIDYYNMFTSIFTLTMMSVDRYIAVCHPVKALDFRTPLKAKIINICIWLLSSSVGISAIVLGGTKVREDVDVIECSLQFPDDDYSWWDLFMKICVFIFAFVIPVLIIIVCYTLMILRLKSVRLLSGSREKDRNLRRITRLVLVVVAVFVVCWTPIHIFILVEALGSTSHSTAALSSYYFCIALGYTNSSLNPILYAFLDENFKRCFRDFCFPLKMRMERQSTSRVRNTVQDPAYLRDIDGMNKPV

Mu-type opioid receptor = Mu-type opioid receptor (Homo sapiens, UniProt P35372); test: HTS Image-Based Screen for Agonists of the MOR Receptor. [Related pubchem assays (depositor defined):AID1777, AID1785, AID1786, AID2133]; type: functional;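 note: imaging of beta-arrestin GFP recruitment into spots after receptor activation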
Sequence of Mu-type opioid receptor (P35372 whole entry): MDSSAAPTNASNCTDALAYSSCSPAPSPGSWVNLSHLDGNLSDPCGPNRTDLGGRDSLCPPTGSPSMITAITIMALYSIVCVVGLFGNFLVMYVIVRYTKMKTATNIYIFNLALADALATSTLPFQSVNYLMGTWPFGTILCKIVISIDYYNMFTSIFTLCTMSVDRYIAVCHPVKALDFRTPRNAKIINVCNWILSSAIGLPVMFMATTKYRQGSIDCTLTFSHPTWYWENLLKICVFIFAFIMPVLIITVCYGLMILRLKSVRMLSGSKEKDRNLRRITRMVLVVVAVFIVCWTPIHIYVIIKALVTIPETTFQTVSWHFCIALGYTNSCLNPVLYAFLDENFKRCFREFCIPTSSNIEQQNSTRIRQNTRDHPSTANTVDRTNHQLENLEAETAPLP

[5] = molecular target: ATP-dependent molecular chaperone HSP82 (Candida albicans (strain WO-1) (Yeast), UniProt C4YTQ8); test: steroid-induced GRE reporter decrease in yeast – S. cerevisiae, luminescence, Hsp90 inhibitor project, dose response (AID 2400); type: functional, cell-based;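 note: beta-galactosidase luminescence from glucocorticoid response element reporter as proxy for Hsp90 function; inhibitor potency where signal loss means Hsp90 inhibition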
Sequence of ATP-dependent molecular chaperone HSP82 (C4YTQ8 whole entry): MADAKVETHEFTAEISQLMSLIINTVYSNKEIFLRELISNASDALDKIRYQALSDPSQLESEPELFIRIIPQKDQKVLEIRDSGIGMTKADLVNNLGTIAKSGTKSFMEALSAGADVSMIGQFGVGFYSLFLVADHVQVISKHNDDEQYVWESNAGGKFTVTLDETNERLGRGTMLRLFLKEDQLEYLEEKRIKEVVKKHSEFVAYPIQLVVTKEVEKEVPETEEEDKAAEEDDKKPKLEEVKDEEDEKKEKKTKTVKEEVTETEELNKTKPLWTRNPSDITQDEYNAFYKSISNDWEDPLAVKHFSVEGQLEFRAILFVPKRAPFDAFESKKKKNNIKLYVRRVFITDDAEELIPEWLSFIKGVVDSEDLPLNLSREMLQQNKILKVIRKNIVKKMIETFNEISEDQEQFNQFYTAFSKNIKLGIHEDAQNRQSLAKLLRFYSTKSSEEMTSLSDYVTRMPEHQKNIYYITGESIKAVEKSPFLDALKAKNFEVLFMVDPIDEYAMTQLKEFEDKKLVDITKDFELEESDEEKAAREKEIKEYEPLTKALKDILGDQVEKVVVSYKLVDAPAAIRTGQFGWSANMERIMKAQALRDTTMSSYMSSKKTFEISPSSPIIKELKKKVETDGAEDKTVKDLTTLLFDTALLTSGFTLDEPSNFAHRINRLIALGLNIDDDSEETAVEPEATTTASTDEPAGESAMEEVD

[6] = fluconazole-exposed Candida albicans growth modulators – fluorescence, retest, confirmation (AID 2467); type: functional, cell-based
[7] = molecular target: T1, Kappa-type opioid receptor; type: functional; remark: listed apart in the source
[8] = molecular target: T2, Serine/threonine-protein phosphatase (Candida dubliniensis (strain CD36 / CBS 7987 / NCPF 3949 / NRRLY-17841) (Yeast), UniProt B9W6M3); test: blockers of CaCl2-induced CDRE-lacZ signaling – S. cerevisiae, luminescence, secondary, dose response (AID 2388); type: functional, cell-based;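 note: yeast reporter cells carrying a calcineurin-responsive lacZ construct stimulated with calcium chloride; luminescent beta-galactosidase reporter signal in whole cells rather than isolated phosphatase activity; potency for inhibition where a drop in reporter signal means calcineurin blockade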
T2 sequence (B9W6M3 whole entry): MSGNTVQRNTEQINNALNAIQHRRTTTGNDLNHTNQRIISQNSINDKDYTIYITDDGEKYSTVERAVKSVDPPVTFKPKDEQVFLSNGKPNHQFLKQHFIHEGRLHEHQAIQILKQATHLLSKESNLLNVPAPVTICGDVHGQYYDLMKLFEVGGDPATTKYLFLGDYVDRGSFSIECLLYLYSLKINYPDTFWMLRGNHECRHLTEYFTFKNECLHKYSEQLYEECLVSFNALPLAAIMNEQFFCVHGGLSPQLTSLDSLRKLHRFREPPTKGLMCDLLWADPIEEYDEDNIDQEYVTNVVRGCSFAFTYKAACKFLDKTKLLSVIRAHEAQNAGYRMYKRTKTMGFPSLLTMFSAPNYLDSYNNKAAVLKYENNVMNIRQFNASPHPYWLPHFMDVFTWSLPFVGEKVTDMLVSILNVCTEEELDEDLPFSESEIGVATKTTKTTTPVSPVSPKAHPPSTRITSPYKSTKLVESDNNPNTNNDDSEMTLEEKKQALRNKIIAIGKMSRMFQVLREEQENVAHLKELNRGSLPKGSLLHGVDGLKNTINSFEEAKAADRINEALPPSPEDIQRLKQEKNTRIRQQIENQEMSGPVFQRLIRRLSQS

[9] = molecular target: T3, Delta-type opioid receptor (Homo sapiens, UniProt P41143); test: HTS Image-Based Screen for Antagonists of the DOR Receptor. [Related pubchem assays (depositor defined):AID1777, AID1785, AID1786, AID2133]; type: functional
T3 sequence (P41143 whole entry): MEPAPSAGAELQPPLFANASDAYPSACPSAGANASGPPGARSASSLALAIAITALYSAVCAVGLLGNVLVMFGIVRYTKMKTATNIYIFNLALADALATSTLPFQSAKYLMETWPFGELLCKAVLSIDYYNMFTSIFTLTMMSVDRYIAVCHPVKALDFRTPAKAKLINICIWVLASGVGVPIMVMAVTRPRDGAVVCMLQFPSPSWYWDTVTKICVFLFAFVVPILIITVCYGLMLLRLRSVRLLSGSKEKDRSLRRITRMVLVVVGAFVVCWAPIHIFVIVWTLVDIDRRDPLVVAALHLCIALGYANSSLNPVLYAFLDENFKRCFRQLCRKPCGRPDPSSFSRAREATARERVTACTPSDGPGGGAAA

HEK293 [10] = test: EBV LMP1 TES2 canonical NF-kB signalling blockers – cell-based, HEK293, luciferase, cherry-pick, dose response (AID 588343); type: functional; settings: Homo sapiens
[11] = molecular target: T3, Delta-type opioid receptor; test: HTS Image-Based Screen for Agonists of the DOR Receptor. [Related pubchem assays (depositor defined):AID1777, AID1786, AID2133]; type: functional
Streptococcus = test: GAS UMAA2166 growth inhibition – luminescence, BacTiterGlo, counter-screen for streptokinase expression inhibitor project, dose response (AID 1915); type: functional, organism-based;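 note: potency for reduction of bacterial viability or growth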
[12] = tested on: Streptococcus sp. 'group A'; test: Streptococcus pyogenes SK(-)GAS viability under kanamycin – luminescence, BacTiterGlo, confirmation, counter-screen for streptokinase expression inhibitor project, dose response (AID 1900); type: functional, organism-based
[13] = molecular target: Heat shock protein HSP 90-alpha (Homo sapiens, UniProt P07900); type: functional, organism-based
Beta-galactosidase = Beta-galactosidase (Escherichia coli, UniProt Q8VNN2); type: functional
[14] = NIH-3T3 fibroblast cytotoxicity, dose response, cytotoxicity control, cell-based, fluorescence, Alamar Blue, secondary assay (AID 2327); type: functional;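 note: NIH-3T3 mouse fibroblasts cultured with fluconazole at 8 µg/mL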
[15] = restored growth of temperature-sensitive Burl-1 yeast – whole organism, S. cerevisiae, Burl-1 ts mutant, luminescence, counter-screen for SUMOylation pathway inhibitor project, dose response (AID 463199); type: functional
[16] = molecular target: UDP-galactopyranose mutase (Mycobacterium tuberculosis, UniProt P9WIQ1); test: Inhibitors of Mycobacterium tuberculosis UDP-galactopyranose mutase (UGM) enzyme Measured in Biochemical System Using Plate Reader - 2105-02_Inhibitor_Dose_CherryPick_Activity. [Related pubchem assays (depositor defined):AID504439]
Sequence of UDP-galactopyranose mutase (P9WIQ1 whole entry): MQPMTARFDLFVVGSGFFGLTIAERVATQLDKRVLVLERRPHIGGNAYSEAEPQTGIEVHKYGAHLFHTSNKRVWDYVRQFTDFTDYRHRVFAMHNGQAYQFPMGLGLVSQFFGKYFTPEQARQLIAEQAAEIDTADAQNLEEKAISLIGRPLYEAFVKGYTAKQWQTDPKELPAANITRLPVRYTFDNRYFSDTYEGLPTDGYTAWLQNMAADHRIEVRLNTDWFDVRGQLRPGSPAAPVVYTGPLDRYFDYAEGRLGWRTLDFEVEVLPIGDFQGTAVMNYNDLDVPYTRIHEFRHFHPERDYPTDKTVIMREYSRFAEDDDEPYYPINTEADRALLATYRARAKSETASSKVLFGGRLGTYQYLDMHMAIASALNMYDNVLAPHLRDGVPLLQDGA

Insulin-degrading enzyme [17] = molecular target: T4, Insulin-degrading enzyme (Homo sapiens, UniProt P14735); test: recombinant IDE activation, cell-free – biochemical, fluorescence polarization, counter-screen for IDE activator project, dose response (AID 588681)
T4 sequence (P14735 whole entry): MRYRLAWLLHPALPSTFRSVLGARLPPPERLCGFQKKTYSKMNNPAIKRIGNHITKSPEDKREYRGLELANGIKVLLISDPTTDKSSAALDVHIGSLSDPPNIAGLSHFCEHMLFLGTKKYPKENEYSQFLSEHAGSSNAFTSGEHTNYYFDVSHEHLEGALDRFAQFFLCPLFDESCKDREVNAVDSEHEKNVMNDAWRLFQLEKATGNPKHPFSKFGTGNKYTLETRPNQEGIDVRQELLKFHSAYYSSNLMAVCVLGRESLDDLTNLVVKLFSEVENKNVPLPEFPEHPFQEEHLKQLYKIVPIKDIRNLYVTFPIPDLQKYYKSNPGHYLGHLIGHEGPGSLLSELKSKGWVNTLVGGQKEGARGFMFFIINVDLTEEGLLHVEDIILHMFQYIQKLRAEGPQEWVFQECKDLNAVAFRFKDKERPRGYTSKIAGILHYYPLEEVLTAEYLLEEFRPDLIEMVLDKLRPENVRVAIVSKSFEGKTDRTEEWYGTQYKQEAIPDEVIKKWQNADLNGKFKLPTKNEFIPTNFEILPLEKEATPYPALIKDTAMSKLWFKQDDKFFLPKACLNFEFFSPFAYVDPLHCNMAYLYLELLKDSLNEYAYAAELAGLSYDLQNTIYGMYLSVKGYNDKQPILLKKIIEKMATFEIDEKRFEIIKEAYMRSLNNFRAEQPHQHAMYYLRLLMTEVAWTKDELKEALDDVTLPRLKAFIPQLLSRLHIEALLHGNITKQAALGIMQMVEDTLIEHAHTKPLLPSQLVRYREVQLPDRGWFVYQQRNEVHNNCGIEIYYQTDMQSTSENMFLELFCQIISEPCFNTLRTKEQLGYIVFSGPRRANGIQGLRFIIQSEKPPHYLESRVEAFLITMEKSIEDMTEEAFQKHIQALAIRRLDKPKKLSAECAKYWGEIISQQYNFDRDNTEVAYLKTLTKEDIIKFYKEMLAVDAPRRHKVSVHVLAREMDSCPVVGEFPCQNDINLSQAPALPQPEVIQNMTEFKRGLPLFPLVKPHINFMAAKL

ORF 73 = ORF 73 (Human herpesvirus 8, UniProt O40947); test: KSHV LANA DNA-binding disruption – biochemical, fluorescence polarization, cherry-picked samples, dose response (AID 504725); design: species or system Human gammaherpesvirus 8;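 note: fluorescence polarization of a labeled DNA duplex reporting LANA DNA binding; potency is for inhibitors that block LANA binding to the DNA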
Sequence of ORF 73 (O40947 whole entry): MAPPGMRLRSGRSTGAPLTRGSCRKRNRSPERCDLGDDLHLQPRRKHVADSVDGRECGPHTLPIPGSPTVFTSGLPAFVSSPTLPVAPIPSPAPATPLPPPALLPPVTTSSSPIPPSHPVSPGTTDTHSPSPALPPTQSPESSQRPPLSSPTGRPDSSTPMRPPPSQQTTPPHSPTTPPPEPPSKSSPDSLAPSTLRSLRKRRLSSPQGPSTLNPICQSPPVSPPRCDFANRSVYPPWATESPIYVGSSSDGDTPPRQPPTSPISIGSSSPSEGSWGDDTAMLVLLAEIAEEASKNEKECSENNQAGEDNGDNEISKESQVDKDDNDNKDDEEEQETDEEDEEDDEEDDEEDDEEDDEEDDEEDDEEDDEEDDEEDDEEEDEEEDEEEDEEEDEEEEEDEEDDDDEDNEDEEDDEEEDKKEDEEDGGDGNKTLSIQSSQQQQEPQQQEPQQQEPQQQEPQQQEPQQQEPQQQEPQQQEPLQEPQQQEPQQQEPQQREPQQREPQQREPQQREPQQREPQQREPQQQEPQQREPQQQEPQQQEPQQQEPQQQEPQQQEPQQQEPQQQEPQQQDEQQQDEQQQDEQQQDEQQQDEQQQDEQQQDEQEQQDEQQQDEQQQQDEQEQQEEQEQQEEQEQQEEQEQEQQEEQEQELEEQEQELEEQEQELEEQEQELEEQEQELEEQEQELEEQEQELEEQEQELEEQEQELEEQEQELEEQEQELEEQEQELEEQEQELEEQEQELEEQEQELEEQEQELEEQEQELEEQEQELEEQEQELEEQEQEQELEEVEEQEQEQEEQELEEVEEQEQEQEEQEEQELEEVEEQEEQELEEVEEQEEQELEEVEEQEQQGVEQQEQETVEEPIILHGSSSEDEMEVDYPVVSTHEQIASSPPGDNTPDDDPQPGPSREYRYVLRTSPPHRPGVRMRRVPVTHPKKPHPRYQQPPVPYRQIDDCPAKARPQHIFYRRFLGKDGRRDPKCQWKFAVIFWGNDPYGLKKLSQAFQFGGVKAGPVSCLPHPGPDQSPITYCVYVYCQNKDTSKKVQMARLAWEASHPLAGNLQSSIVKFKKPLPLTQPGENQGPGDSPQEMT

[18] = rescue of ΔF508 CFTR function, airway epithelium – human bronchial epithelial cells, plate reader, cherry-pick, two tests, dose response (AID 743267); type: functional, cell-based
HEK293 [19] = test: optical interference in Abeta FP readout, dose response, artefact control for IDE activator project, biochemical, fluorescence polarization (AID 588442); type: functional, cell-based; settings: Homo sapiens
Beta Lactamase = Beta Lactamase (Pseudomonas aeruginosa, UniProt Q932Y6);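 note: confirmatory high-throughput screen measuring VIM-2 metallo-beta-lactamase inhibition by epi-absorbance in dose response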
Sequence of Beta Lactamase (Q932Y6 whole entry): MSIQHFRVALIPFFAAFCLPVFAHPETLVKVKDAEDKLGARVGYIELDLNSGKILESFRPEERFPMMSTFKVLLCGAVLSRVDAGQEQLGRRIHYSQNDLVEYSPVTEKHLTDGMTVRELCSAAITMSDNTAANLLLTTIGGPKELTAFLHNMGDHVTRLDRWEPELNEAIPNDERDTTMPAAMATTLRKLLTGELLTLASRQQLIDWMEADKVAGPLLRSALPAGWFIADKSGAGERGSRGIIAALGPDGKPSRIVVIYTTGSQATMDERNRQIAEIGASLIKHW

[20] = viability loss in HepG2 liver cells – cell-based, ATP luminescence, cherry-pick, set 6, cytotoxicity control, dose response (AID 1053125); type: functional
HEK293 [21] = test: membrane integrity loss in HEK cells – cell-based, fluorescence, cytotoxicity control for IDE activator project, dose response (AID 588440); type: functional; settings: Homo sapiens;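 note: cytotoxicity by LDH release measuring loss of membrane integrity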
Insulin-degrading enzyme [22] = molecular target: T4, Insulin-degrading enzyme; test: cellular IDE activation of Abeta substrate cleavage – fluorescence polarization, HEK cells, dose response (AID 588439); type: functional, cell-based
cells = settings: A549
Phosphomannomutase 2 = Phosphomannomutase 2 (Homo sapiens, UniProt O15305); test: Counter screen SAR assay for PMM2 inhibitors via a fluorescence intensity assay. [Related pubchem assays (depositor defined):AID1545, AID1574]
Sequence of Phosphomannomutase 2 (O15305 whole entry): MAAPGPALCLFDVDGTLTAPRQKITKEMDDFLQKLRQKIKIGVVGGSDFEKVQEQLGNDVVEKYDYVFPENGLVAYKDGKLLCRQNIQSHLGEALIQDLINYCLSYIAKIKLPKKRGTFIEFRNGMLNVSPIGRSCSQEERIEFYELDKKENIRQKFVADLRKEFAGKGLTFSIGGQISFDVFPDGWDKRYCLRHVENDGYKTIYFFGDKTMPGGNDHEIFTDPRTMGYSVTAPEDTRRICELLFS

[23] = molecular target: T5, Mannose-6-phosphate isomerase (Homo sapiens, UniProt P34949); test: phosphomannose isomerase inhibition – biochemical, fluorescence intensity, confirmation (AID 1535)
T5 sequence (P34949 whole entry): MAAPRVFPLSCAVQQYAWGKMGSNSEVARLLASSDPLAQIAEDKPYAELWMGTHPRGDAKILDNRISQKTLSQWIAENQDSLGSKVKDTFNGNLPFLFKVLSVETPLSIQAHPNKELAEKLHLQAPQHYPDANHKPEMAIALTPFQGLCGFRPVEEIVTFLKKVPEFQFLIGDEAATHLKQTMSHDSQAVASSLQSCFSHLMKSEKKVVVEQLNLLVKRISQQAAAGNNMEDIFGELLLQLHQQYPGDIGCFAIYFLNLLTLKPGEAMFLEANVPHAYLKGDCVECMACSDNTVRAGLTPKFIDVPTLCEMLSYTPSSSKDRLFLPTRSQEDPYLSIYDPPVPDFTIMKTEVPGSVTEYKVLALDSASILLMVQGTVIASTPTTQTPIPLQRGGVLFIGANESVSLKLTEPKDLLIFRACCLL

[24] = molecular target: Nuclear receptor ROR-gamma (Homo sapiens, UniProt P51449); test: LXR, FXR and VP16 reporter activity, cell-based, luciferase reporter, ROR modulator project, late-stage follow-up, panel member RORG (AID 2117)
Sequence of Nuclear receptor ROR-gamma (P51449 whole entry): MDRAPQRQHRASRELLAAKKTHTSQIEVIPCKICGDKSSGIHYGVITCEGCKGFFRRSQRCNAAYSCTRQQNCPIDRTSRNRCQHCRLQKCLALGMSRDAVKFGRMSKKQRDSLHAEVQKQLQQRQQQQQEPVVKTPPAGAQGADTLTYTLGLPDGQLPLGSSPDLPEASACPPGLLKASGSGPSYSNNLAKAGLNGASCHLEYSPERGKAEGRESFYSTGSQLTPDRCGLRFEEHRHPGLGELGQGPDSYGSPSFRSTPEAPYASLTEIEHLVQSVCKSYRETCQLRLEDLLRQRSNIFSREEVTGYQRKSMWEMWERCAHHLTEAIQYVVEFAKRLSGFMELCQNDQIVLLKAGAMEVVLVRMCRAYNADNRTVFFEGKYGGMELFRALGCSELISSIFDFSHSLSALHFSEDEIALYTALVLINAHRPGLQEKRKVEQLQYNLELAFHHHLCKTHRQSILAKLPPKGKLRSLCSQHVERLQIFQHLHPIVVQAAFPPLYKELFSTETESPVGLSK

[25] = molecular target: Nuclear receptor ROR-alpha (Homo sapiens, UniProt P35398); test: LXR, FXR and VP16 reporter activity, cell-based, luciferase reporter, ROR modulator project, late-stage follow-up, panel member RORA (AID 2117)
[26] = molecular target: Intestinal-type alkaline phosphatase (Homo sapiens, UniProt P09923); test: inhibition of human intestinal alkaline phosphatase – biochemical, dose response (AID 488876); type: functional
[27] = molecular target: T6, Alkaline phosphatase, tissue-nonspecific isozyme (Homo sapiens, UniProt P05186); test: TNAP enzyme inhibition by screening hits, dose response, selectivity assay for mouse IAP inhibitor project, biochemical, human TNAP, uHTS hits (AID 488906); type: functional
T6 sequence (P05186 whole entry): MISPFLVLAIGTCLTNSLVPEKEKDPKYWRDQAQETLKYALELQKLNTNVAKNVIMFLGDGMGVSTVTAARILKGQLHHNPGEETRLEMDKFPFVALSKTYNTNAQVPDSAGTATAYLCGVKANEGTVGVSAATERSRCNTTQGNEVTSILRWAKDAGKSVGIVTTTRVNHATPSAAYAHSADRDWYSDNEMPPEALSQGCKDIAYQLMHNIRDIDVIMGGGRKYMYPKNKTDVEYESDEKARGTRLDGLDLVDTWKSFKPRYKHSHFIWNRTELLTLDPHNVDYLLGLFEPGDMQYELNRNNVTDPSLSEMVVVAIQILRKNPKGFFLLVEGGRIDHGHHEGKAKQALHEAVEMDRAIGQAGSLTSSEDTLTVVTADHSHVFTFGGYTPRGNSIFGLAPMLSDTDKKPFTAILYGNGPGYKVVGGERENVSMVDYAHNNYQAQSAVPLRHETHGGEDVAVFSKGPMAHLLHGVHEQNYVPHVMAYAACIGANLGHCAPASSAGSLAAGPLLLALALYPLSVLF

[28] = molecular target: Intestinal-type alkaline phosphatase (Mus musculus, UniProt P24822); test: PubChem AID 488785; type: functional
Sequence of Intestinal-type alkaline phosphatase (Mus musculus, UniProt P24822) (P24822 whole entry): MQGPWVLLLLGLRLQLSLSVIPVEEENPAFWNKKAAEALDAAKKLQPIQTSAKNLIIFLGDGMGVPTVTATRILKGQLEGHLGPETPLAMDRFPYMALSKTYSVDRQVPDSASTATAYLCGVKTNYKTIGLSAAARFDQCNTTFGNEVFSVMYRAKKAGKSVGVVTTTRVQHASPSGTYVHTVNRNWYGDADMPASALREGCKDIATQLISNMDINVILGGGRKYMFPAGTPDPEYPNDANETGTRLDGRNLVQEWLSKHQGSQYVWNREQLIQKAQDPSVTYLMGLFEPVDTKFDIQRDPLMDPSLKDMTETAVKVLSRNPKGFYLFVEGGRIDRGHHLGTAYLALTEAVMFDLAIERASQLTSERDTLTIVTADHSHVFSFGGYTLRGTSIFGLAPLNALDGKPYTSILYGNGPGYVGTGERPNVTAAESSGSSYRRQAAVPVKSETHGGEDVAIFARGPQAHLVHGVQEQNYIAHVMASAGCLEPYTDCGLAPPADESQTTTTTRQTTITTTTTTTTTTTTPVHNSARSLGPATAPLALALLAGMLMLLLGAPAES

For `COc1cccc(C(=O)NC(=S)Nc2ccccc2N2CCOCC2)c1`, the IC50 [1] was 6.01 µM (active), the AC50 [2] was 20.1 µM (active) and the AC50 [3] was 33.5 µM (active).
In the case of `O=C(Nc1nnc(SCc2ccc(F)cc2)s1)c1ccccn1`, the IC50 [4] is reported as > 32 µM, the EC50 (Mu-type opioid receptor) is reported as > 32 µM (inactive) and the EC50 [5] is reported as 4.97 µM (active). For the same compound, the EC50 [6] was 1.42 µM (active), the IC50 [7] was 4.45 µM (active) and the EC50 [8] was > 180 µM (inactive). The IC50 [9] was > 32 µM (inactive), the AC50 (HEK293 [10]) was 1.97 µM (active) and the EC50 [11] was > 32 µM (inactive). For the same compound, the EC50 (Streptococcus) was 2.54 µM (active), the EC50 [12] was 0.663 µM (active) and the AC50 [13] was 3.56 µM (active). The EC50 (Beta-galactosidase) was > 31.5 µM (inactive) and the EC50 [14] was 74.7 µM (active).
For `O=C(CSc1nnc(NC(=O)CN2CCOCC2)s1)Nc1ccccc1`, the AC50 [15] was 47.5 µM (active).
In the case of `Nc1ccc2ccc3cccc[n+]3c2c1.[O-][Cl+3]([O-])([O-])[O-]`, the AC50 [16] is reported as 3.88 µM (active), the EC50 (Insulin-degrading enzyme [17]) is reported as > 54.7 µM (inactive) and the AC50 (ORF 73) is reported as 1.3 µM (active). The AC50 [18] was 21.4 µM (active), the EC50 (HEK293 [19]) was 6.89 µM (active) and the IC50 (Beta Lactamase) was 9.33 µM (active). For the same compound, the AC50 [20] was > 52 µM (inactive), the IC50 (HEK293 [21]) was > 89.2 µM (inactive) and the EC50 (Insulin-degrading enzyme [22]) was > 54.7 µM (inactive). For the same compound, the AC50 (cells) was 27.3 µM (active).
For `Nc1ccccc1/N=c1\ssnc1Cl`, the IC50 (Phosphomannomutase 2) was > 100 µM (inactive) and the IC50 [23] was 9.43 µM (active).
With `COc1cccc(S(=O)(=O)Nc2ccc(C(O)(C(F)(F)F)C(F)(F)F)cc2)c1` the IC50 [24] was 7.23 µM (active) and the IC50 [25] was 2.31 µM (active).
For `COC(=O)C/C=N/NC1=NC(=O)/C(=C/C(=O)O)S1`, the IC50 [26] was 1.74 µM (active), the IC50 [27] was > 100 µM (inactive) and the IC50 [28] was 3.68 µM (active).
